Reference: patent US11020414B2, “Antimicrobial compositions with cysteamine” (priority 2010, dated 2021)
Converted amounts (≈) assume the structure as drawn.

What was measured:
[1] = tested on: Pseudomonas aeruginosa Pa01; assay: MIC determination, strain Pa01; type: cell-based; details: for MIC: read-out: MIC100
Experimental: (§1) The bacterial inoculum was established by the dilution method from actively-growing cultures in Mueller-Hinton (MH) broth, standardized with 0.5 McFarland turbidity standard as described in the CLSI method M26-A.
(§2) Both the bacterial inoculum and the antimicrobial agents, including the compounds structurally related to cysteamine, were added simultaneously to the plates. The plates were incubated at 37° C. for 24 h and the optical density was read at 625 nm on a microtitre plate reader (BioTek Powerwave XS, Winooski, USA). […]
(§3) A number of compounds related in chemical structure to cysteamine were examined for antimicrobial activity; cystamine (dihydrochloride salt), taurine and 2,3-dimercaptosuccinic acid. Other compounds chemically related to cysteamine are known, but are toxic, and are therefore of no utility in a drug of this nature.

[2] = tested on: Pseudomonas aeruginosa Pa14; assay: MIC determination, strain Pa14; type: cell-based; details: for MIC: read-out: MIC100
Experimental: as §1, §2, §3

[3] = tested on: Pseudomonas aeruginosa Pa058; assay: MIC determination, strain Pa058; type: cell-based; details: for MIC: read-out: MIC100
Experimental: as §1, §2, §3

[4] = tested on: Pseudomonas aeruginosa NH57388A; assay: MIC determination, strain NH57388A; type: cell-based; details: for MIC: read-out: MIC100
Experimental: as §1, §2, §3

[5] = tested on: P. aeruginosa ATCC 27853; assay: MIC and FIC of antibiotics with cysteamine, environments mimicking a CF lung; type: cell-based, Pseudomonas aeruginosa
Experimental: Both the bacterial inoculum and the antimicrobial agents, including the compounds structurally related to cysteamine, were added simultaneously to the plates. The plates were incubated at 37° C. for 24 h and the optical density was read at 625 nm on a microtitre plate reader (BioTek Powerwave XS, Winooski, USA). The MIC was obtained as the lowest concentration of antimicrobial showing total inhibition of bacterial growth.
The FIC corresponds to an interaction coefficient indicating whether the combination of antimicrobial agents is synergistic, additive, antagonist or neutral. The FIC is determined by comparing the activity of an agent in combination (MIC of agent A+agent B) with the activity of the agent alone (MIC of agent A or agent B) as follow (Singh et al., 2000): FIC=MICA[combination]/MICA[alone]+MICB[combination]/MICB[alone]
The range of concentrations of antimicrobial agents was 0-10 μg/ml.

Row | MIC50 [1] [mg/L] | MIC90 [1] [mg/L] | MIC [1] [mg/L] | MIC50 [2] [mg/L] | MIC90 [2] [mg/L] | MIC [2] [mg/L] | MIC50 [3] [mg/L] | MIC90 [3] [mg/L] | MIC [3] [mg/L] | MIC50 [4] [mg/L] | MIC90 [4] [mg/L] | MIC [4] [mg/L] | MIC upon administration with cysteamine compared to administration alone ([5]; environments mimicking those found in a CF lung) | Structure (SMILES) | antimicrobial effect in combination with cysteamine ([5]; mucolytic environment)
1 | 250 to 1000 (≈ 1.64 to 6.57 mM) | 1000 to 2000 (≈ 6.57 to 13.1 mM) | 2000 (≈ 13.1 mM) | 125 to 250 (≈ 0.821 to 1.64 mM) | 1000 to 2000 (≈ 6.57 to 13.1 mM) | 2000 (≈ 13.1 mM) | 250 to 500 (≈ 1.64 to 3.28 mM) | 1000 to 2000 (≈ 6.57 to 13.1 mM) | 2000 (≈ 13.1 mM) | 500 to 1000 (≈ 3.28 to 6.57 mM) | 1000 to 2000 (≈ 6.57 to 13.1 mM) | 2000 (≈ 13.1 mM) |  | NCCSSCCN [Cystamine, cystamine] | 
2 | 1000 to 2000 (≈ 5.49 to 11 mM) | > 2000 | > 2000 | 1000 to 2000 (≈ 5.49 to 11 mM) | 1000 to 2000 (≈ 5.49 to 11 mM) | > 2000 | 500 to 2000 (≈ 2.74 to 11 mM) | 1000 to 2000 (≈ 5.49 to 11 mM) | 2000 (≈ 11 mM) | 500 to 2000 (≈ 2.74 to 11 mM) | 1000 to 2000 (≈ 5.49 to 11 mM) | 2000 (≈ 11 mM) |  | O=C(O)C(S)C(S)C(=O)O (centres unmarked) [2,3-Dimercaptosuccinic Acid, 2,3-dimercaptosuccinic acid] | 
3 | > 2000 | > 2000 | > 2000 | > 2000 | > 2000 | > 2000 | > 2000 | > 2000 | > 2000 | > 2000 | > 2000 | > 2000 |  | NCCS(=O)(=O)O [Taurine, taurine] | 
4 |  |  |  |  |  |  |  |  |  |  |  |  | greatly reduced | O=C(O)c1cn(C2CC2)c2cc(N3CCNCC3)c(F)cc2c1=O [Ciprofloxacin] | maintained
